Measured values reported in patent US20080113956A1, “Substituted Porphyrins” (priority 1997, published 2008).
Like-named read-outs stand apart in the source and are kept apart here.

Columns and labels:
SOD null E. coli (JI132) = assay: Aerobic growth of SOD null E. coli strain versus parental strain; format: cell-based; conditions: for aerobic growth (A700) of SOD null E. coli cells: 20 μM, glucose minimal medium (M9) plus 5 essential amino acids, JI132
Protocol: FIG. 3. SOD activity in vivo (E. coli) of 1, 2, 3* and 4* (20 μM) in minimal medium (mixture of atropoisomers, JI=SOD deficient strain, AB parental strain).
(§1) SOD activity can be monitored in the presence and absence of EDTA using the method of McCord and Fridovich (J. Biol. Chem. 244:6049 (1969)). The efficacy of a mimetic can also be determined by measuring the effect of the mimetic on the aerobic growth of a SOD null E. coli strain versus a parental strain lacking the specific mutations. Specifically, parental E. coli (AB1157) and SOD null E. coli. (JI132) can be grown in M9 medium containing 0.2% casamino acids and 0.2% glucose at pH 7.0 and 37° C.; growth can be monitored in terms of turbidity followed at 700 nm.
The activity in vivo of the mimetics of the invention can be tested on an E. coli strain deleted of the genes coding for both the MnSOD and FeSOD. In this assay, the efficacy of a mimetic is determined by measuring the effect of the mimetic on the aerobic growth of a SOD null E. coli strain versus a parental strain. Specifically, parental E. coli (AB1157) and SOD null E. coli. (JI132) are grown in M9 medium containing 0.2% casamino acids and 0.2% glucose at pH 7.0 and 37° C.; growth is monitored in terms of turbidity followed at 700 nm.

[1] = Electrochemistry: metal-centered redox potential; format: physicochemical; conditions: for Redox Potential (E1/2): metal centered, pH 7.8 if not otherwise specified; for redox potential: text of Example VIII, unit not given
Protocol: Electrochemistry. The electrochemical characterization was performed as described previously on a Voltammetric Analyzer Model 600 (CH instrument) using a glassy carbon electrode (Ag/AgCl reference and Pt auxiliary electrodes), at 0.5 mM porphyrin, pH 7.8 (0.05 M phosphate buffer), 0.1 M NaCl. The potentials were standardized against potassium ferricyanide/potassium ferrocyanide couple (Batinic-Haberle et al, Arch. Biochem. Biophys. 343:225 (1997); Kolthof et al, J. Phys. Chem. 39:945 (1974)).
Electrochemistry. The metal-centered redox behavior of all metalloporphyrin products was reversible. The half-wave potentials (E^O1/2) were calculated as the average of the cathodic and anodic peaks and are given in mV vs NHE (Table 5). The average shift per chlorine is +55 mV (Table 5), which is in agreement with the values previously reported for H2TPP derivatives (between −50 and +70 mV) (Sen et al, Chem. Soc. Faraday Trans. 93:4281 (1997); Autret et al. J. Chem. Soc. Dalton Trans. 2793 (1996); Hariprasad et al, J. Chem. Soc. Dalton Trans. 3429 (1996); Tagliatesta et al, Inorg. Chem. 35:5570 (1996); Ghosh, J. Am. Chem. Soc. 117:4691 (1995); Takeuchi et al, J. Am. Chem. Soc. 116:9730 (1994); Binstead et al, Inorg. Chem. 30:1259 (1991); Giraudeau et al, J. Am. Chem. Soc. 101:3857 (1979)). This shift appears to be higher (˜+65 mV) between 0 and 1, and between 2 and 3 chlorines (Table 5). […] The manganese redox state of MnCl4TE-2-PyP^5 (E^O1/2=+448 mV) and MnOBTMPyP^4+ (E^O1.2=+480 mV) is 3+ and 2+, respectively. This difference may be explained by their difference in terms of redox potential (˜30 mV) but also by structural considerations, for instance an increased distortion of the porphyrin ring in the case of MnOBTMPyP^4+. (Batinic-Haberle et al, Arch. Biochem. Biophys. 343:225 (1997); Ochsenbein et al, Angew. Chem. Int. Ed. Engl. 33:348 (1994)).

[2] = SOD-like activity in vitro (xanthine/xanthine oxidase, ferricytochrome c; McCord and Fridovich); format: biochemical; conditions: for rate of dismutation (kcat): Example VII
Protocol: as §1
The superoxide dismutase activity of the mimetics of the invention depends on a number of factors, including thermodynamic factors (eg the metal-centered redox-potential see FIG. 1)), and kinetic factors (eg electrostatic facilitation).
Superoxide dismuting activity. The SOD-like activities were measured using the xanthine/xanthine oxidase system as a source of O2^− and ferricytochrome c as its indicating scavenger (McCord et al, J. Biol. Chem. 244:6049 (1969)). O2— was produced at the rate of 1.2 μM per minute and reduction of ferricytochrome c was followed at 550 nm. Assays were conducted in presence of 0.1 mM EDTA in 0.05 M phosphate buffer (pH 7.8). Rate constants for the reaction of the compounds were based upon competition with […] cytochrome c, kcyt c=2.6×10^5 M^−1s^−1 (Butler et al, J. Biol. Chem. 257:10747 (1982)). All measurements were done at 25° C. Cytochrome c concentration was at least 10^3-fold higher than the concentrations of the SOD mimics and the rates were linear for at least two minutes, during which the compounds intercepted ˜100 equivalents of O2^−, thus confirming the catalytic nature of O2^− dismutation in presence of the mimics.
Superoxide dismuting activities. SOD-like activities were measured as described previously, based on competition with cytochrome c (McCord et al, J. Biol. Chem. 244:6049 (1969)). MnClxTE-2-PyP^5+ SOD-like activities are reported in Table 5, IC50 (M) representing the concentration for one unit of activity (or the concentration that causes 50% inhibition of cytochrome c reduction by O2^−) and kcat (M^−1s^−1) representing the rate constant for the superoxide dismutation reaction. The SOD-like activity per mole of MnCl4TE-2-PyP^5 is approximately 2-, 7- and 100-fold higher than MnOBTMPyP^4+, MnTM-2-PyP^5+ and MnTM-4PyP^5+, respectively (Faulkner et al, J. Biol. Chem. 269:23471 (1994); Batinic-Haberle et al, Arch. Biochem. Biophys. 343:225 (1997); Batinic-Haberle et al, J. Biol. Chem. 273:24521 (1998)). The SOD-like activity of MnCl4TE-2-PyP^5+ represents 20% of the activity of the Cu,Zn-SOD enzyme on a molar basis (40% per active site considering that the enzyme has two active sites) (Klug-Roth et al, J. Am. Chem. Soc. 95:2786 (1973)).

[3] = SOD activity in U/mg (reduction of cytochrome c or photoreduction of NBT); format: biochemical; conditions: for SOD: unit = amount that inhibits one half the reduction of cytochrome c or photoreduction of NBT
[4] = vs NHE, literature comparators, cited from earlier work

Compound: CC[n+]1ccccc1-c1c2nc(c(-c3cccc[n+]3CC)c3ccc([n-]3)c(-c3cccc[n+]3CC)c3nc(c(-c4cccc[n+]4CC)c4ccc1[n-]4)C=C3)C=C2.[Mn+3] [MnTE-2-PyP^5+, manganic meso-tetrakis-(N-ethylpyridinium-2-yl)porphyrin]
- aerobic growth (A700) of SOD null E. coli cells (SOD null E. coli (JI132)): increase in A700
- E°1/2 half-wave potential ([1]; vs NHE, 0.5 mM porphyrin, 0.1 M NaCl, 0.05 M phosphate buffer (pH 7.8)): +228 mV
- kcat rate constant for the superoxide dismutation reaction ([2]; 0.1 mM EDTA, 0.05 M phosphate buffer pH 7.8, 25° C.): 5.7 10^7 M^−1 s^−1
- IC50 ([2]; 0.1 mM EDTA, 0.05 M phosphate buffer pH 7.8, 25° C., read-out: IC50 concentration that causes 50% inhibition of cytochrome c reduction by O2^−): 0.045 µM

Compound: manganese(III) 5,10,15,20-tetrakis(N-methylpyridyl)porphyrin [MnTM-2-PyP^5+]
- difference in SOD activity, ortho vs para ([3]; MnTM-2-PyP vs MnTM-4-PyP): factor of six
- SOD [3]: 8,500 U/mg
- aerobic growth (A700) of SOD null E. coli cells (SOD null E. coli (JI132); listed as 3): increase in A700
- toxicity in vivo (E. coli) (SOD null E. coli (JI132); FIG. 3): decreased toxicity
- E°1/2 half-wave potential of comparison compounds ([4]; listed as MnTM-2-PyP^3−): +220 mV
- Redox Potential (E1/2) ([1]; vs NHE): +0.22 V
- redox potential [1]: +0.22
- rate of dismutation (kcat) [2]: 6e+07 M⁻¹ s⁻¹
- SOD activity in vitro relative to the para compound 1 ([2]; in vitro enzymatic assay): more than an order of magnitude more active

Compound: manganese(III) 5,10,15,20-tetrakis(N-methylpyridyl)porphyrin [MnTM-4-PyP^5+, reference compound]
- SOD [3]: 547 U/mg
- aerobic growth (A700) of SOD null E. coli cells (SOD null E. coli (JI132); listed as 1): did not show an increase in A700
- growth of SOD-deficient Escherichia coli (SOD null E. coli (JI132); Example VII): inhibited growth
- E°1/2 half-wave potential of comparison compounds [4]: +60 mV
- E°1/2 half-wave potential of comparison compounds ([4]; listed as MnTM-4-PyP^5−): +060 mV
- Redox Potential (E1/2) ([1]; vs NHE): +0.06 V
- redox potential [1]: +0.06
- E1/2 one-electron metal-centered redox-potential ([1]; vs NHE, listed as 1): +0.060 V
- half-wave potential (E1/2) ([1]; vs normal hydrogen electrode (NHE), Example VII): +0.060 V
- rate of dismutation (kcat) [2]: 3.8e+06 M⁻¹ s⁻¹
